≈ marks a conversion by molar mass, not a printed value. Read-outs that look alike come from different tables or passages of the source.
What was measured:
S. aureus DNA gyrase = target: T1, S. aureus DNA gyrase (Staphylococcus aureus, UniProt P20831); test: biochemical; format: biochemical; settings: for LE DNA Gyrase S. aureus: LE = (1.37/HA) × pIC50; for IC50: fluorescence plate supercoiling assay, mean of two to four measurements
T1 construct: purchased Inspiralis (Norwich, UK)
Procedure: (§1) A Gyrase Supercoiling High Throughput Plate assay kit, purchased from Inspiralis (Norwich. UK) was used to determine IC50 values of compounds on S. aureus and E. coli. […] Biotinylated oligonucleotide in wash buffer was immobilized onto the wells, and the excess oligonucleotide was washed off with wash buffer and ultrapure water. […] The reactions were stopped by adding the TF buffer (50 mM NaOAc (pH 4.7), 50 mM NaCl, and 50 mM MgCl2) to allow the triplex formation (biotin-oligonucleotide-plasmid) for additional 30 min. Afterward, the unbound plasmid was washed off using TF buffer, and the solution of Promega Diamond dye in T10 buffer (10 mM Tris-HCl (pH 8.0), 1 mM EDTA) was added. […] IC50 value represents the mean of two to four independent measurements.

E. coli DNA gyrase = target: T2, E. coli DNA gyrase (Escherichia coli, UniProt P0AES4); test: Gyrase Supercoiling High Throughput Plate assay, E. coli; format: biochemical; settings: for LE DNA Gyrase E. coli: LE = (1.37/HA) × pIC50
T2 construct: purchased Inspiralis (Norwich, UK)
T2 sequence (P0AES4 whole entry): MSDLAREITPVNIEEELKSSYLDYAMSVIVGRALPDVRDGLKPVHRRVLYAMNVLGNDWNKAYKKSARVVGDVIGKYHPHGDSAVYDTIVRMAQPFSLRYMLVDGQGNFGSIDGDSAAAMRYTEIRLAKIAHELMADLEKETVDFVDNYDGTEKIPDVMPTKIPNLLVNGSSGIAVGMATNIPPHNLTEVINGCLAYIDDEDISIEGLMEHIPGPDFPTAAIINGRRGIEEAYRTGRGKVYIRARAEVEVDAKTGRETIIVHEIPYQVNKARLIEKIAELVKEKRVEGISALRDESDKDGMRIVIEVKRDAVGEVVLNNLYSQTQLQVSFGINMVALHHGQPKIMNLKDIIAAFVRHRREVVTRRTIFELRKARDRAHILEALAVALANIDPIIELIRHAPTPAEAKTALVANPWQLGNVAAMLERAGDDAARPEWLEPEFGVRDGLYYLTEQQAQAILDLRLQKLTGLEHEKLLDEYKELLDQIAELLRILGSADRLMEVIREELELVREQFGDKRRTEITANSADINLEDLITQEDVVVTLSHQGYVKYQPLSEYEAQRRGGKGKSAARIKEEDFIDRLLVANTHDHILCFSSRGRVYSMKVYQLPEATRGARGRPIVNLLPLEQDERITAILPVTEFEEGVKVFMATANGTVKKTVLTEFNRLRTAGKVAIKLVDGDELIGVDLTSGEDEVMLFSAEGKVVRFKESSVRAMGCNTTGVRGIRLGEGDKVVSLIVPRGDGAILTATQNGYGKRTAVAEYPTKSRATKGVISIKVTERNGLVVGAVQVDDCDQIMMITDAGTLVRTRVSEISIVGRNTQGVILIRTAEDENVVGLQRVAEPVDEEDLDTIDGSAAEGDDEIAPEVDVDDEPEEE
Procedure: as §1

MRSA = test: MIC broth microdilution, MRSA; format: cell-based, methicillin-resistant S. aureus; settings: Staphylococcus aureus, read-out: MIC MRSA
Procedure: (§2) Antimicrobial testing was carried out by the broth microdilution method in 96-well plate format following the Clinical and Laboratory Standards Institute (CLSI) guidelines and European Committee on Antimicrobial Susceptibility Testing (EUCAST) recommendations. Bacterial suspension of specific bacterial strain equivalent to 0.5 McFarland turbidity standard was diluted with cation-adjusted Mueller Hinton broth with TES (Thermo Fisher Diagnostic, Landsmeer, The Netherlands), to obtain a final inoculum of 10^5 CFU/mL. Compounds dissolved in DMSO and inoculum were mixed together and incubated for 18–20 h at 35 °C. Suspensions of Mycobacterium sp. were prepared into a tube of Middelbrook 7H9 broth supplemented with 5% OADC (Thermo Scientific, Trek Diagnostic Systems, West Sussex, UK) and incubated for at least 10 days. After incubation the minimal inhibitory concentration (MIC) values were determined by visual inspection as the lowest dilution of compounds showing no turbidity. Tetracycline was used as a positive control on every assay plate.

MRSA (QA-11.7) = test: MIC broth microdilution, MRSA QA-11.7; format: cell-based, methicillin-resistant S. aureus; settings: Staphylococcus aureus, 20 h, read-out: MIC MRSA (QA-11.7)
Procedure: as §2

MRSA (QA-11.6) = test: MIC broth microdilution, MRSA QA-11.6; format: cell-based, methicillin-resistant S. aureus; settings: Staphylococcus aureus, read-out: MIC MRSA (QA-11.6)
Procedure: as §2

[1] = test system: E. faecalis DRK 057 (ATCC 29212); test: MIC broth microdilution, E. faecalis; format: cell-based
Procedure: as §2

S. pneumoniae (QA-10/02) = test: MIC broth microdilution, S. pneumoniae; format: cell-based; settings: Streptococcus pneumoniae
Procedure: as §2

[2] = test system: S. agalactiae RDK 047 (QA-990/02); test: MIC broth microdilution, S. agalactiae; format: cell-based
Procedure: as §2

E. coli (QA-11.3) = test: MIC broth microdilution, E. coli QA-11.3; format: cell-based
Procedure: as §2

E. coli D22 = test: MIC broth microdilution, E. coli D22; format: cell-based; settings: Escherichia coli
Procedure: as §2

E. coli N43 (CGSC# 5583) = test: MIC broth microdilution, E. coli N43; format: cell-based; settings: Escherichia coli
Procedure: as §2

[3] = test system: A. baumannii 8C6 (GES-14); test: MIC broth microdilution, A. baumannii; format: cell-based
Procedure: as §2

[4] = test system: P. aeruginosa RDK 184 (DSM 939); test: MIC broth microdilution, P. aeruginosa; format: cell-based
Procedure: as §2

[5] = test system: S. alachua RDK 030c (QA-1482/04); test: MIC broth microdilution, S. alachua; format: cell-based
Procedure: as §2

[6] = test system: C. jejuni RDK 135 (ATCC 33560); test: MIC broth microdilution, C. jejuni; format: cell-based
Procedure: as §2

M. smegmatis = test: MIC, M. smegmatis; format: cell-based, Mycobacterium smegmatis; settings: Mycolicibacterium smegmatis; read-out: MIC M. smegmatis
Procedure: as §2

M. avium = test: MIC, M. avium; format: cell-based
Procedure: as §2

[7] = Equilibrium solubility at pH 6.8; settings: phosphate buffered saline, 37 °C, pH 6.8, aqueous buffer, thermodynamic from solid
Procedure: (§3) Prior to the measurements of solubility and permeability isocratic HPLC methods were developed. […] The individual method parameters for each compound are given in the Supplementary Materials Table S1.
The vials were then placed in a homogenizer (Next Advance Bullet Blender, Troy, NY, USA) for 5 min ad speed setting “2” after which they were kept in a thermostated shaker (Tehtnica HeatMix, Domel, Slovenia) at 37 °C and 1200 RPM for 24 h. […] Twenty µL of these solutions were injected for the HPLC analysis by the described methods (Supplementary Materials Table S1). External standards for calibration were made in a mobile phase with 5% acetonitrile in a range of 30–90 mg/L and injected at 20 µL injection volumes.

in vitro = settings: for Papp at 4 h: PAMPA
Procedure: as §3
A 96-well precoated three-layer PAMPA plates (Corning® Gentest™ Pre-coated PAMPA Plate System, Corning, NY, USA) were used according to the manufacturer’s instructions and as described previously with 300 µL of the donor solutions in the bottom compartment and 200 µL of the acceptor solution (pH 7.4 PBS) in the upper compartment at 37 °C and a 4-h incubation time. The initial and end donor solutions were injected at a 5 µL injection volume. The initial donor solutions were also diluted 100-fold and injected at a 100 µL injection volume to serve as external references for the end acceptor solutions which were injected at the same injection volume. The permeability calculations were made with a manufacturer-provided Excel spreadsheet directly from the measured peak areas accounting for the relevant dilutions and injection volumes.

[8] = resistant to cefoxitin, gentamicin, sulfamethoxazole, tetracycline
[9] = Enterococcus faecalis, ATCC29212; read-out: MIC E. faecalis DRK 057 (ATCC 29212)
[10] = Streptococcus agalactiae; read-out: MIC S. agalactiae RDK 047 (QA-990/02)
[11] = Escherichia coli, 20 h; read-out: MIC E. coli (QA-11.3)
[12] = D22, mutation in the lpxC gene that increases membrane permeability, read-out: MIC E. coli D22
[13] = read-out: E. coli N43 MIC in molar
[14] = read-out: MIC E. coli N43 (CGSC# 5583)
[15] = Acinetobacter baumannii; read-out: MIC A. baumannii 8C6 (GES-14)
[16] = Pseudomonas aeruginosa, DSM939; read-out: MIC P. aeruginosa RDK 184 (DSM 939)
[17] = Salmonella; read-out: MIC S. alachua RDK 030c (QA-1482/04)
[18] = Campylobacter jejuni, ATCC33560; read-out: MIC C. jejuni RDK 135 (ATCC 33560)
[19] = Mycobacterium avium; read-out: MIC M. avium
[20] = Enterococcus faecalis, ATCC29212, read-out: MIC E. faecalis DRK 057 (ATCC 29212)
[21] = Streptococcus agalactiae, read-out: MIC S. agalactiae RDK 047 (QA-990/02)
[22] = Escherichia coli, 20 h, read-out: MIC E. coli (QA-11.3)
[23] = Acinetobacter baumannii, read-out: MIC A. baumannii 8C6 (GES-14)
[24] = Pseudomonas aeruginosa, DSM939, read-out: MIC P. aeruginosa RDK 184 (DSM 939)
[25] = Salmonella, read-out: MIC S. alachua RDK 030c (QA-1482/04)
[26] = Campylobacter jejuni, ATCC33560, read-out: MIC C. jejuni RDK 135 (ATCC 33560)
[27] = Mycobacterium avium, read-out: MIC M. avium

T1 sequence (P20831 whole entry): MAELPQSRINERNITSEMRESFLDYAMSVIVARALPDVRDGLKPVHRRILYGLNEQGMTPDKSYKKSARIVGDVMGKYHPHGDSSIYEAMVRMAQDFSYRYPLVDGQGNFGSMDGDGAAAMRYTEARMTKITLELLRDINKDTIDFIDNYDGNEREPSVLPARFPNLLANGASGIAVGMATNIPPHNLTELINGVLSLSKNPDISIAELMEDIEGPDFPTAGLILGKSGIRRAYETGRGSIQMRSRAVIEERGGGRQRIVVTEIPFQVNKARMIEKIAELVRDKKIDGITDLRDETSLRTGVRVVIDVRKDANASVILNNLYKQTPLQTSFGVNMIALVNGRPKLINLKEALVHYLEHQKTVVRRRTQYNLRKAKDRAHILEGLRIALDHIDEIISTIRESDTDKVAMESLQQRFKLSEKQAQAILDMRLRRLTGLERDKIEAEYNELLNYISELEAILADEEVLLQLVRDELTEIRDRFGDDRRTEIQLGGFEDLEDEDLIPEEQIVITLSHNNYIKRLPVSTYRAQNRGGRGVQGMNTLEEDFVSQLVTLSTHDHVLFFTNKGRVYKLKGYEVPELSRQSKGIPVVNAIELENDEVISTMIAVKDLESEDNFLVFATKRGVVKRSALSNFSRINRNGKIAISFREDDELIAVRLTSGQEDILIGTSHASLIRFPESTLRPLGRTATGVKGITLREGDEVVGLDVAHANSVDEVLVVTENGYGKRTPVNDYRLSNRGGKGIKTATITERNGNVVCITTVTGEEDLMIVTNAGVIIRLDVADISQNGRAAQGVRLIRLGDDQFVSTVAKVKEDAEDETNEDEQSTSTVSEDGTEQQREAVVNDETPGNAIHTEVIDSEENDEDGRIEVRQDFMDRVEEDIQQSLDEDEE
T1 sequence (P0A0K8 whole entry partner): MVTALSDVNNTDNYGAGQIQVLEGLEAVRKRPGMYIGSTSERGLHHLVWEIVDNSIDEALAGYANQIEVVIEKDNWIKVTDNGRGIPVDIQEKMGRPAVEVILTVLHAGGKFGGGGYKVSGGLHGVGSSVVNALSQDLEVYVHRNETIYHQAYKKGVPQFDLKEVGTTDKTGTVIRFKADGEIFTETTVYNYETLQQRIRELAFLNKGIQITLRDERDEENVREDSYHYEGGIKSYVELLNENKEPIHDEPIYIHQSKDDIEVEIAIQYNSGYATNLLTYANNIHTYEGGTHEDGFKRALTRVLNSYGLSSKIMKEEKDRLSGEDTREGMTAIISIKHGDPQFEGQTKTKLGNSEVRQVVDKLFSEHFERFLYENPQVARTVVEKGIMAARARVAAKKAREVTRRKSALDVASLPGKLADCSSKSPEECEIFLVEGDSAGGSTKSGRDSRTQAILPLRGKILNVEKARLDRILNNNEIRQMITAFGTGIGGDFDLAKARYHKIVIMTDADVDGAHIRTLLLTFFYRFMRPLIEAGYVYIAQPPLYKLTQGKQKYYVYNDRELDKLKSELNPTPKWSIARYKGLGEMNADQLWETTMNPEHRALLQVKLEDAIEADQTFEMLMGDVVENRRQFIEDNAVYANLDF

| Compound | LE DNA Gyrase S. aureus (S. aureus DNA gyrase) | IC50 (S. aureus DNA gyrase) [µM] | IC50 (E. coli DNA gyrase) [µM] | LE DNA Gyrase E. coli (E. coli DNA gyrase) | MIC (MRSA) [µg/mL] | MIC (MRSA (QA-11.7)) [µg/mL] | MIC (MRSA (QA-11.6); [8]) [µg/mL] | MIC [1, 9] [µg/mL] | MIC (S. pneumoniae (QA-10/02)) [µg/mL] | MIC [2, 10] [µg/mL] | MIC (E. coli (QA-11.3); [11]) [µg/mL] | MIC (E. coli D22; [12]) [µg/mL] | MIC (E. coli N43 (CGSC# 5583); [13]) [µM] | MIC (E. coli N43 (CGSC# 5583); [14]) [µg/mL] | MIC [3, 15] [µg/mL] | MIC [4, 16] [µg/mL] | MIC (M. smegmatis) [µg/mL] | solubility thermodynamic at 24 h [7] [µg/mL] | Papp at 4 h (in vitro) [×10⁻⁶ cm/s] | Papp at 4 h (in vitro; pH 7.4) [×10⁻⁶ cm/s] | other results |
| --- | --- | --- | --- | --- | --- | --- | --- | --- | --- | --- | --- | --- | --- | --- | --- | --- | --- | --- | --- | --- | --- |
| COc1ccc2nccc(CCN3CCC(NCc4cnn(-c5ccccc5)c4)CC3)c2n1 [Compound 5, 1-(2-(6-Methoxy-1,5-naphthyridin-4-yl)ethyl)-N-((1-phenyl-1H-pyrazol-4-yl)methyl)piperidin-4-amine] | 0.27 | 0.33 ± 0.08 | 3 ± 0.55 | 0.23 | 0.5 (≈ 1.13 µM) | 0.5 (≈ 1.13 µM) | 1 (≈ 2.26 µM) | 1 (≈ 2.26 µM) | 0.5 (≈ 1.13 µM) | 1 (≈ 2.26 µM) | 2 (≈ 4.52 µM) | 1 (≈ 2.26 µM) | 2.26 | 1 | 4 (≈ 9.04 µM) | > 128 | 0.25 (≈ 0.565 µM) | 381 (≈ 861 µM) | > 2.7 | 25.5 | improvement in S. aureus gyrase IC50 compared to its predecessor (S. aureus DNA gyrase; vs methoxy-quinoline cyclohexyl-amide predecessor): 2.5 fold; increase in potency on E. coli DNA gyrase (E. coli DNA gyrase; vs most potent compound from previous study [18]): Approximately 4 fold; MIC [5, 17]: 64 µg/mL (≈ 145 µM); MIC [6, 18]: 16 µg/mL (≈ 36.2 µM); MIC (M. avium; [19]): 64 µg/mL (≈ 145 µM) |
| COc1ccc2nccc(CCN3CCC(NCc4c(C)nc5c(C)cccn45)CC3)c2n1 [Compound 6, N-((2,8-Dimethylimidazo[1,2-a]pyridin-3-yl)methyl)-1-(2-(6-methoxy-1,5-naphthyridin-4-yl)ethyl)piperidin-4-amine] | – | > 100 | > 100 | – | > 128 | > 128 | – | – | > 128 | – | – | – | 288 | 128 | – | – | 64 (≈ 144 µM) | 797 (≈ 1790 µM) | > 2.7 | 5.6 | MIC (MRSA (QA-11.6)): > 128 µg/mL; MIC [1, 20]: > 128 µg/mL; MIC [2, 21]: 128 µg/mL (≈ 288 µM); MIC (E. coli (QA-11.3); [22]): 128 µg/mL (≈ 288 µM); MIC (E. coli D22; D22, read-out: MIC E. coli D22): > 128 µg/mL; MIC [3, 23]: > 128 µg/mL; MIC [4, 24]: > 128 µg/mL; MIC [5, 25]: > 128 µg/mL; MIC [6, 26]: > 128 µg/mL; MIC (M. avium; [27]): > 128 µg/mL |
| COc1ccc2nccc(CCN3CCC(NC(=O)c4cn5cccc(C#N)c5n4)CC3)c2n1 [Compound 7, 8-Cyano-N-(1-(2-(6-methoxy-1,5-naphthyridin-4-yl)ethyl)piperidin-4-yl)imidazo[1,2-a]pyridine-2-carboxamide] | – | > 100 | > 100 | – | > 128 | > 128 | – | – | 128 (≈ 281 µM) | – | – | – | 281 | > 128 | – | – | 16 (≈ 35.1 µM) | 883 (≈ 1940 µM) | – | 2.6 | MIC (MRSA (QA-11.6)): > 128 µg/mL; MIC [1, 20]: > 128 µg/mL; MIC [2, 21]: > 128 µg/mL; MIC (E. coli (QA-11.3); [22]): > 128 µg/mL; MIC (E. coli D22; D22, read-out: MIC E. coli D22): > 128 µg/mL; MIC [3, 23]: > 128 µg/mL; MIC [4, 24]: > 128 µg/mL; MIC [5, 25]: > 128 µg/mL; MIC [6, 26]: > 128 µg/mL; MIC (M. avium; [27]): > 128 µg/mL; PAMPA permeability classification [low/high] (in vitro; relative to reference drugs): int erm ediat e |
| COc1ccc2nccc(CCN3CCC(NCc4cnn(-c5ccccc5)n4)CC3)c2n1 [Compound 8, 1-(2-(6-Methoxy-1,5-naphthyridin-4-yl)ethyl)-N-((2-phenyl-2H-1,2,3-triazol-4-yl)methyl)piperidin-4-amine] | 0.27 | 0.24 ± 0.04 | 7.83 ± 0.55 | 0.21 | 0.5 (≈ 1.13 µM) | 0.5 (≈ 1.13 µM) | 0.5 (≈ 1.13 µM) | 1 (≈ 2.25 µM) | 0.25 (≈ 0.564 µM) | 0.5 (≈ 1.13 µM) | 32 (≈ 72.1 µM) | 32 (≈ 72.1 µM) | 2.26 | 1 | 32 (≈ 72.1 µM) | > 128 | 0.5 (≈ 1.13 µM) | 106 (≈ 239 µM) | > 2.7 | 10.6 | MIC [5, 17]: > 128 µg/mL; MIC [6, 18]: 4 µg/mL (≈ 9.02 µM); MIC (M. avium; [19]): 32 µg/mL (≈ 72.1 µM) |

From PMC8300687, “A Fine-Tuned Lipophilicity/Hydrophilicity Ratio Governs Antibacterial Potency and Selectivity of Bifurcated Halogen Bond-Forming NBTIs” (Antibiotics, 2021)
